Measurements reported in patent US20210309666A1, “SMALL MOLECULE MDM2 PROTEIN DEGRADERS” (THE REGENTS OF THE UNIVERSITY OF MICHIGAN, priority 2018, published 2021).
Like-named read-outs stand apart in the source and are kept apart here.

Columns and labels:
MDM2 protein [1] = biological target: T1, MDM2 protein (Homo sapiens, UniProt Q00987); experiment: Western blot analysis in 22RV1 cells, MDM2; type: cell-based; parameters: endogenous in cells; settings: 2 hr treatment
Protocol: (§1) 22RV1 cells were treated with Cpd. No. 4 and Cpd. D (MDM2 degraders) or with Cpd. A (MDM2 inhibitor) for 2 hr. MDM2 and p53 proteins were probed using specific antibodies. GAPDH was used as the loading control. […] No. 4 and Cpd. D reduce MDM2 protein and increase p53 protein level, and that Cpd. A increases MDM2 and p53 protein levels in 22RV1 cells.

MOLM-13 cells = experiment: Cell growth inhibition, 4-day proliferation assay (WST-8); type: cell-based; settings: Homo sapiens, 96 h; MOLM-13, acute myeloid leukemia, 4 days
Procedure, shortened: (§2)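 Cells seeded at 2,000-3,000 per well in medium with 10% FBS and treated with serial compound dilutions for 4 days at 37 °C, 5% CO2. Viability by WST-8 (10% v/v, 1-2 h), absorbance at 450 nm, normalised to DMSO; IC50 by four-parameter variable-slope fit.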

RS4;11 cells = experiment: as above; type: cell-based; settings: Homo sapiens, 96 h; RS4; 11, precursor cell lymphoblastic leukemia, 4 days; read-out: IC50
Procedure, shortened: as §2

OCI-AML-5 cells = experiment: as above; type: cell-based; settings: Homo sapiens, 96 h; OCI-AML-5, acute myeloid leukemia, 4 days
Procedure, shortened: as §2

LNCaP cells = experiment: as above; type: cell-based; settings: Homo sapiens, 96 h, prostate carcinoma, 4 days
Procedure, shortened: as §2

22RV1 cells = experiment: as above; type: cell-based; settings: Homo sapiens, 96 h; 22RV1, prostate carcinoma, 4 days
Procedure, shortened: as §2

SIG-M5 cells = experiment: as above; type: cell-based; settings: Homo sapiens, 96 h; SIG-M5, acute myeloid leukemia, 4 days
Procedure, shortened: as §2

OCI-AML-2 cells = experiment: as above; type: cell-based; settings: Homo sapiens, OCI-AML2, 96 h; OCI-AML-2, acute myeloid leukemia, 4 days
Procedure, shortened: as §2

MOLM-14 cells = experiment: as above; type: cell-based; settings: Homo sapiens, 96 h; MOLM-14, acute myeloid leukemia, 4 days
Procedure, shortened: as §2

ML-2 cells = experiment: as above; type: cell-based; settings: Homo sapiens, 96 h; ML-2, acute myeloid leukemia, 4 days
Procedure, shortened: as §2

HCT116 cells = experiment: as above; type: cell-based; settings: Homo sapiens, HCT-116, 96 h; HCT116, colorectal carcinoma, 4 days
Procedure, shortened: as §2

MV-4;11 cells = experiment: as above; type: cell-based; settings: Homo sapiens, MV4-11, 96 h, 11, acute biphenotypic B myelomonocytic leukemia, 4 days
Procedure, shortened: as §2

p53 protein [2] = experiment: Western blot analysis in 22RV1 cells, p53; type: cell-based, human; settings: 2 hr treatment
Protocol: as §1

[3] = Separate PK experiment, plasma concentrations after oral dose; type: in vivo; settings: mouse, 50 mg/kg, mice
From the text: In a separate PK experiment, the plasma concentrations of Cpd.

[4] = Pharmacokinetics in mice, oral and IV; type: in vivo; settings: for F: PO 50 mg/kg vs IV 10 mg/kg; for AUC: mouse, in vivo
Protocol: The pharmacokinetics of Cpd. Nos. 4 and 6, and Cpd. D were evaluated in mice.

MDM2 protein [5] = biological target: T1, MDM2 protein; experiment: Western blot analysis in RS4;11 cells, MDM2; type: cell-based; parameters: No. 4 and Cpd; No. 6 (MDM2 degraders); endogenous in cells; host or cells: RS4;11; settings: 2 hr treatment
Protocol: (§3) RS4;11 cells were treated with Cpd. No. 4 and Cpd. No. 6 (MDM2 degraders) or with Cpd. B and Cpd. C (MDM2 inhibitors) for 2 hr. MDM2 and p53 proteins were probed using specific antibodies. GAPDH was used as the loading control. […] No. 4 and Cpd. No. 6 reduce MDM2 protein and increase p53 protein level, and that Cpd. B and Cpd. C increase MDM2 and p53 protein levels in RS4;11 cells. The structures of Cpd. B (see Compound Example No. 24 of U.S. Pat. No. 8,629,141) and Cpd.

p53 protein [6] = experiment: Western blot analysis in RS4;11 cells, p53; type: cell-based, human; settings: 2 hr treatment
Protocol: as §3

[7] = read-out: Plasma concentration, Average / Mean
[8] = read-out: Plasma concentration, Mouse 1
[9] = read-out: Plasma concentration, Mouse 2

T1 sequence (Q00987 whole entry): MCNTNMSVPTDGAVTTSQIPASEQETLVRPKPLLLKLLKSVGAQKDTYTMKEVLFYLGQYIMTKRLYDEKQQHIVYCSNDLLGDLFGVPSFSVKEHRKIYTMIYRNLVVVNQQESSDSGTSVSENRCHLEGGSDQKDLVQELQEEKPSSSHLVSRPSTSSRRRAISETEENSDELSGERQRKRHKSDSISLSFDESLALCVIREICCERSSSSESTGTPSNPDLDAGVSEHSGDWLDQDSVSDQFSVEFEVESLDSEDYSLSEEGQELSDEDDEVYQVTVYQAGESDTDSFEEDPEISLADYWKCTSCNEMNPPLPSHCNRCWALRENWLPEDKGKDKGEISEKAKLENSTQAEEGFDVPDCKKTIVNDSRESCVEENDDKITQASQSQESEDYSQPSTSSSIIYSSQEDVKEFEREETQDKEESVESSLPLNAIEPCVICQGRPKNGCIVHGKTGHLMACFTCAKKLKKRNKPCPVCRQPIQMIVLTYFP

Row | SMILES | IC50 (MOLM-13 cells) | IC50 (RS4;11 cells) | IC50 (OCI-AML-5 cells) | IC50 (LNCaP cells) | IC50 (22RV1 cells) | IC50 (SIG-M5 cells) | IC50 (OCI-AML-2 cells) | IC50 (MOLM-14 cells) | IC50 (ML-2 cells) | IC50 (HCT116 cells) | IC50 (MV-4;11 cells) | concentration at 1 h [3, 7] | concentration at 1 h [3, 8] | concentration at 1 h [3, 9] | concentration at 3 h [3, 7] | concentration at 3 h [3, 8] | concentration at 3 h [3, 9] | concentration at 6 h [3, 7] | concentration at 6 h [3, 8] | concentration at 6 h [3, 9] | further results
1 | O=C1CCC(N2Cc3c(C#CC4CCN(C(=O)c5ccc(NC(=O)[C@@H]6NC7(CCCCC7)[C@@]7(C(=O)Nc8cc(Cl)ccc87)[C@H]6c6cccc(Cl)c6F)cc5)CC4)cccc3C2=O)C(=O)N1 (some centres unmarked) [Cpd. D, reference compound] | 34 nM | 2.9 nM | 150 nM | 33 nM | 45 nM | 110 nM | 110 nM | 78 nM | 11 nM | 400 nM | 10 nM | 77.9 ng/mL | 78 ng/mL | 77.8 ng/mL | 624 ng/mL | 510 ng/mL | 738 ng/mL | 414 ng/mL | 234 ng/mL | 594 ng/mL | MDM2 protein level (MDM2 protein [1]): reduce; p53 protein level (p53 protein [2]): increase; F [4]: 1.27%; AUC ([4]; IV, 10 mg/kg): 193000 ng·h/mL; AUC ([4]; PO, 50 mg/kg): 12300 ng·h/mL
2 | O=C1CCC(N2Cc3c(C#CC4CCN(C(=O)[C@H]5CC[C@H](NC(=O)[C@@H]6NC7(CCCCC7)[C@@]7(C(=O)Nc8cc(Cl)ccc87)[C@H]6c6cccc(Cl)c6F)CC5)CC4)cccc3C2=O)C(=O)N1 (stereo partly drawn) [Cpd. No. 4, (3′R,4′S,5′R)-6″-chloro-4′-(3-chloro-2-fluorophenyl)-N-((1r,4R)-4-(4-((2-(2,6-dioxopiperidin-3-yl)-1-oxoisoindolin-4-yl)ethynyl)piperidine-1-carbonyl)cyclohexyl)-2″-oxodispiro[cyclohexane-1,2′-pyrrolidine-3′,3″-indoline]-5′-carboxamide] | 5.1 nM | 0.72 nM | 23 nM | 3.2 nM | 14 nM | 21 nM | 21 nM | 7.8 nM | 1.2 nM | 86 nM | 2.3 nM | 0.62 ng/mL | 0.231 ng/mL | 1.01 ng/mL | 1320 ng/mL | 902 ng/mL | 1730 ng/mL | 338 ng/mL | 231 ng/mL | 446 ng/mL | MDM2 protein level (MDM2 protein [1]): reduce; MDM2 protein level (MDM2 protein [5]): reduce; p53 protein level (p53 protein [2]): increase; F [4]: 0.93%; AUC ([4]; IV, 10 mg/kg): 156000 ng·h/mL; AUC ([4]; PO, 50 mg/kg): 7250 ng·h/mL; p53 protein level (p53 protein [6]): increase
3 | O=C1CCC(N2Cc3c(C#CC4CCN(C(=O)C56CCC(NC(=O)[C@@H]7NC8(CCCCC8)[C@@]8(C(=O)Nc9cc(Cl)ccc98)[C@H]7c7cccc(Cl)c7F)(CC5)CC6)CC4)cccc3C2=O)C(=O)N1 (stereo partly drawn) [Cpd. No. 6, (3′R,4′S,5′R)-6″-chloro-4′-(3-chloro-2-fluorophenyl)-N-(4-(4-((2-(2,6-dioxopiperidin-3-yl)-1-oxoisoindolin-4-yl)ethynyl)piperidine-1-carbonyl)bicyclo[2.2.2]octan-1-yl)-2″-oxodispiro[cyclohexane-1,2′-pyrrolidine-3′,3″-indoline]-5′-carboxamide] | 18 nM | 2.4 nM | 71 nM | 13 nM | 42 nM | 63 nM | 69 nM | 25 nM | 4.9 nM | 310 nM | 6.4 nM | 0.42 ng/mL | 0.576 ng/mL | 0.257 ng/mL | 3220 ng/mL | 3110 ng/mL | 3330 ng/mL | 2380 ng/mL | 2320 ng/mL | 2430 ng/mL | MDM2 protein level (MDM2 protein [5]): reduce; F [4]: 5.7%; AUC ([4]; IV, 10 mg/kg): 154000 ng·h/mL; AUC ([4]; PO, 50 mg/kg): 43500 ng·h/mL; p53 protein level (p53 protein [6]): increase
